Measured values published in patent US5428048A, “Aryl-N-hydroxyureas as inhibitors of 5-lipoxygenase and anto-arteriosclerotic agents” (American Home Products Corporation, priority 1993, dated 1995).

Legend:
[1] = molecular target: T1, 5-Lipoxygenase (Homo sapiens, UniProt P09917); test: Inhibition of 5-Lipoxygenase in Human Whole Blood (ionophore A23187-stimulated LTB4); format: cell-based
T1 construct: endogenous in cells; host or cells: whole blood of male human donors (results per 10^6 neutrophils)
T1 sequence (P09917 1-674): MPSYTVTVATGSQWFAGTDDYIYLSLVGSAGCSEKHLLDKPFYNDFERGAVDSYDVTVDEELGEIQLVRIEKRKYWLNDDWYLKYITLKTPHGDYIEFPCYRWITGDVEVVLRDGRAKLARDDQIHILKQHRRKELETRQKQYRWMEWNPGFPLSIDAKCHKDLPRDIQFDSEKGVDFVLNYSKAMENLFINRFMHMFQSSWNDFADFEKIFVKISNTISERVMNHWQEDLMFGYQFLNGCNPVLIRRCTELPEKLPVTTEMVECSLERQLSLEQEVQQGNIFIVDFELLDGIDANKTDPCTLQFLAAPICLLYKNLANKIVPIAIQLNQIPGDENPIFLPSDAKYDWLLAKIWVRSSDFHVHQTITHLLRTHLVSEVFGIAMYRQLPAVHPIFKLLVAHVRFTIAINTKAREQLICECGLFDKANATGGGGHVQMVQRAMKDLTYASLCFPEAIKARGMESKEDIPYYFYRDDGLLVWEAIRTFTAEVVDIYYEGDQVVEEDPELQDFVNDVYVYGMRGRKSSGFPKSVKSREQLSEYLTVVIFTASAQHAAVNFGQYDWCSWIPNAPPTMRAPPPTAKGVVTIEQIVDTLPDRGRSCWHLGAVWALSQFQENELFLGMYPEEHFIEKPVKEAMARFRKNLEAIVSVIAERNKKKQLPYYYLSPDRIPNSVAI
Description: 1. Inhibition of 5-Lipoxygenase in Human Whole Blood
Blood is obtained in 50-100 ml quantities from male donors. White blood cell counts and differentials are made. Two ml of blood are placed in a 15 ml polypropylene test tube. Test compounds are solubilized in dimethylsulfoxide and diluted in 1:10 in 10% bovine serum albumin in phosphate buffered saline, pH 7.4 resulting in a final dimethylsulfoxide concentration of 0.1% in the blood. Then, solutions of test compounds are added to the blood in a shaking water bath at 37° C. for 10 minutes prior to the addition of 30 μM calcium ionophore (A23187, Sigma). After ionophore administration, whole blood samples are mixed and incubated for 20 minutes at 37° C. in a shaking water bath. Incubation is terminated by placing samples in an ice bath and immediately adding ethylene glycol-bis-(β-aminoethyl ether)-N, N,N',N'-tetraacetic acid (10 mM). Samples are mixed and centrifuged at 1200×g for 15 minutes at […]. Preparation of samples for evaluation by RIA or ELISA is carded out by the following protocol. Plasma is removed from sample tubes, placed in 15 ml polypropylene test tubes containing 8 ml methanol, and then vortexed to precipitate protein. Samples are stored at -70° C. overnight. The next day, samples are centrifuged at 200×g for 15 minutes at 4° C. to pellet the precipitate. Samples are dried in a Savant SpeedVac Concentrator, Model SVC 200H, reconstituted to original volume with ice cold RIA or ELISA buffer, and stored at -70° C. until assayed. The assay for eicosanoids (LTB4, TxB2, and PGE2) is performed as described by the manufacturer of the [^3 H]-RIA kit or ELISA kit (LTB4 -Amersham, TxB2 and PGE2 - Caymen Chemical).
The total eicosanoid level in 2 ml of blood is calculated and reported as ng/10^6 neutrophils. Significance is determined by a one-way analysis of variance with least significant difference (LSD) comparisons to control (p≤0.05) and IC50 's (μM) are determined by regression analysis (Finney, 1978). Drug effects are expressed as percent change from control values.

[2] = test system: Low Density Lipoprotein; test: Inhibition of Copper Ion Mediated Oxidation of Low Density Lipoprotein; format: biochemical; conditions: Cu+2 mediated oxidation of rabbit or monkey LDL, 37° C., 90 minutes, 532 nm
Description: 5. Inhibition of Copper Ion Mediated Oxidation of Low Density Lipoprotein
In this in vitro assay, the inhibition of Cu^+2 mediated oxidation of rabbit or monkey LDL by an invention compound is determined spectrophotometricallly. Oxidation of LDL results in the formation of LDL-diene which absorbs light at 532 nm. Inhibition of oxidation of LDL leads to a decrease in absorbance at 532 nm.
Rabbit or monkey LDL is prepared according to the procedures of Havel, Eder and Gragdon, "The Distribution and Chemical Composition of Ultracentrifugally Separated Lipoproteins in Human Serum,: J. Clin. Invest. 34, 1345-1353 (1955) and Parhtasarathy, Wieland and Steriberg, "A Role for Endothelial Cell Lipoxygenase in the Oxidative Modification of Low Density Lipoprotein," Proc. Natl. Acad. Sci. USA 86, 1046-1050 (1989). Test compound solutions are prepared by dissolving the invention compounds in ethanol at concentrations up to 248 μM. The medium used is Dulbecco's phosphate buffered saline containing 0.5 mg/ml bovine serum albumin. For standards, 0 to 10 μl of an aqueous solution of 1,1,3,3-tetraethoxypropane (1 μmol/ml H2 O) in 4.1 ml of medium is used.
Test compound solution ([…]) is added to 4 ml of medium in incubation tubes. To each tube is added 10 μl of LDL solution and 25 μl of aqueous copper sulfate solution (1.32 mg/ml H2 O). The tubes are incubated at 37° C. for 90 minutes and the oxidation reaction quenched by addition of 1 ml of thiobarbituric acid solution (0.67% in 50% acetic acid). The tubes are heated at 90° C. for 1 hour, then chilled in an ice bath and the chromophore extracted into 2 ml of n-butanol. Absorbence is read at 532 nm and the results are reported as nmols of malondialdehyde equivalents.
Significant differences (p<0.05) are determined by the Dunnett T-test or by the Student-Newman-Keuls Test for significant differences between means. The assay is conducted using several concentrations [I] of the inhibitor test compounds. The LDL solution concentrations at different experiments were either 1.5 mg/ml, 2.5 mg/ml or 10.3 mg/ml. The IC50 is determined by non-linear regression, plotting log [I] vs. % inhibition. (Reference: K. Yagi, Biochemical Medicine 15,212-216 (1976)).

For `NC(=O)N(O)Cc1ccc(OCCc2noc(-c3ccccc3)n2)cc1` [Example 21, 1-hydroxy-1-[4-[2-(5-phenyl-[1,2,4]-oxadiazol-3-yl)-ethoxy]-benzyl]-urea], the inhibition at 1 µM [1] was 70%.
Molecule `Cc1oc(-c2ccccc2)nc1CCOc1ccc(C(C)N(O)C(N)=O)cc1` (stereo not shown) [Example 4] has an IC50 [2] of 1.3 µM and an inhibition at 10 µM ([1]; 10 μM) of 60%.
For `Cc1oc(-c2ccccc2)nc1CCOc1ccc(CN(O)C(N)=O)cc1` [Example 1], the IC50 [2] was 0.69 µM and the inhibition at 1 µM [1] was 55%.
With `Cc1oc(-c2ccc(C(F)(F)F)cc2)nc1CCOc1ccc(CN(O)C(N)=O)cc1` [Example 13, 1-Hydroxy-1-[4-[2-[5-methyl-2(4-trifluoromethyl-phenyl)-oxazol-4-yl]-ethoxy]benzyl]-urea] the IC50 [2] was 0.82 µM and the inhibition at 1 µM [1] was 47%.
